Assays:
Parameters in all cases: species or system AML cell lines (8); Primary HTS, single concentration about 10 uM, Cell Titer Glo viability; log10 luminescence, per cent inhibition relative to cycloheximide control
Details in all cases: 72 h, relative to cycloheximide control, log10 luminescence; inhibitor
U937 = system: U937
MV4-11 = system: MV4-11
M07e = system: M07e
CMK = system: CMK
MOLM-13 = system: MOLM-13
CMS = system: CMS
CHRF288-11 = system: CHRF288-11
ML-2 = system: ML-2

## OCCCNc1nccc(-c2c(-c3ccc(F)cc3)nn3cc(C(F)(F)F)ccc23)n1 [SJ000573170-1, R5361/115/1]
U937
  U937 %inh: 1.034%
MV4-11
  MV4-11 %inh: -0.4985%
M07e
  M07e %inh: -1.662%
CMK
  CMK %inh: 125%
MOLM-13
  MOLM-13 %inh: -2.069%
CMS
  CMS %inh: 105.9%
CHRF288-11
  CHRF288-11 %inh: 127.7%
ML-2
  ML-2 %inh: -1.781%

## c1ccc(COc2ccc(Nc3ncnc4ccc(-c5ccco5)cc34)cc2)cc1 [SJ000573171-1, C3157/71/1]
U937
  U937 %inh: 10.84%
MV4-11
  MV4-11 %inh: 14.65%
M07e
  M07e %inh: -0.2498%
CMK
  CMK %inh: 6.655%
MOLM-13
  MOLM-13 %inh: 27.04%
CMS
  CMS %inh: 1.088%
CHRF288-11
  CHRF288-11 %inh: -4.196%
ML-2
  ML-2 %inh: 3.492%

## O=C1NC(=O)C(c2cccc(Cl)c2)=C1Nc1ccc(O)c(Cl)c1 [SJ000573172-1, RS98844-062A3]
U937
  U937 %inh: 3.736%
MV4-11
  MV4-11 %inh: 8.124%
M07e
  M07e %inh: 6.042%
CMK
  CMK %inh: 35.38%
MOLM-13
  MOLM-13 %inh: 11.18%
CMS
  CMS %inh: 2.425%
CHRF288-11
  CHRF288-11 %inh: 12.93%
ML-2
  ML-2 %inh: 2.635%

## c1ccc(-c2nc3n(c2-c2ccc4c(c2)OCO4)CCC3)nc1 [SJ000573174-1, JB42196-142B1]
U937
  U937 %inh: 1.96%
MV4-11
  MV4-11 %inh: 4.462%
M07e
  M07e %inh: 7.377%
CMK
  CMK %inh: 48.28%
MOLM-13
  MOLM-13 %inh: 37.41%
CMS
  CMS %inh: 32.28%
CHRF288-11
  CHRF288-11 %inh: 104.5%
ML-2
  ML-2 %inh: 5.523%

## CN(c1ccc(NC(=O)NCCN2CCOCC2)cc1)c1ccnc(Nc2ccc(CS(C)(=O)=O)cc2)n1 [SJ000573175-1, U17983/92/2]
U937
  U937 %inh: 4.061%
MV4-11
  MV4-11 %inh: 85.52%
M07e
  M07e %inh: 2.849%
CMK
  CMK %inh: -0.4287%
MOLM-13
  MOLM-13 %inh: 82.21%
CMS
  CMS %inh: 0.2292%
CHRF288-11
  CHRF288-11 %inh: -0.5072%
ML-2
  ML-2 %inh: 2.492%

## Oc1cccc(-c2nc(-c3ccccc3)[nH]c2-c2ccncc2)c1 [SJ000573176-1, KH49127-012A1]
U937
  U937 %inh: 2.636%
MV4-11
  MV4-11 %inh: 3.826%
M07e
  M07e %inh: 1.15%
CMK
  CMK %inh: 4.668%
MOLM-13
  MOLM-13 %inh: 8.153%
CMS
  CMS %inh: 5.24%
CHRF288-11
  CHRF288-11 %inh: 2.324%
ML-2
  ML-2 %inh: 2.359%

## CCN(CC)S(=O)(=O)c1ccc(OC)c(Nc2ncc(-c3ccccc3)o2)c1 [SJ000573177-1, U14961/35/1]
U937
  U937 %inh: 3.148%
MV4-11
  MV4-11 %inh: 74.67%
M07e
  M07e %inh: -3.903%
CMK
  CMK %inh: 11.05%
MOLM-13
  MOLM-13 %inh: 13.29%
CMS
  CMS %inh: 2.203%
CHRF288-11
  CHRF288-11 %inh: -8.829%
ML-2
  ML-2 %inh: 1.232%

## COc1cccc(-n2nc(C)c3c(N/N=C(\C)c4ccncc4)ncnc32)c1 [SJ000573178-1, U17747/163/1]
U937
  U937 %inh: -2.387%
MV4-11
  MV4-11 %inh: -0.7035%
M07e
  M07e %inh: -1.478%
CMK
  CMK %inh: -0.9949%
MOLM-13
  MOLM-13 %inh: -1.351%
CMS
  CMS %inh: 0.07052%
CHRF288-11
  CHRF288-11 %inh: -4.056%
ML-2
  ML-2 %inh: -1.055%

## O=C1NC(=O)C(c2cccc(Cl)c2)=C1Nc1ccc(Cl)c(C(=O)O)c1 [SJ000573179-1, RS98844-062A1]
U937
  U937 %inh: 1.114%
MV4-11
  MV4-11 %inh: -0.02775%
M07e
  M07e %inh: -0.5868%
CMK
  CMK %inh: -1.769%
MOLM-13
  MOLM-13 %inh: -0.7042%
CMS
  CMS %inh: -1.594%
CHRF288-11
  CHRF288-11 %inh: -5.305%
ML-2
  ML-2 %inh: 0.225%

## Nc1nccc(-c2c(-c3ccc(F)cc3)ncn2CCCN2CCOCC2)n1 [SJ000573180-1, TG19207-124A1]
U937
  U937 %inh: 3.947%
MV4-11
  MV4-11 %inh: 0.7283%
M07e
  M07e %inh: 1.031%
CMK
  CMK %inh: -0.5604%
MOLM-13
  MOLM-13 %inh: -0.9293%
CMS
  CMS %inh: -3.18%
CHRF288-11
  CHRF288-11 %inh: -0.01823%
ML-2
  ML-2 %inh: 2.942%
